Results on 5 molecules are retold here after patent publication US20090075272A1, “Method to Identify CD40-Sensitive Cells Using Gene Expression” (priority 2007, published 2009).

Entries after “also recorded” stand apart in the source; their conditions may differ.

Assay [1] relates to Su-DHL4 cells. In words: Cell death after treatment with calcium ionophore. It counts as cell-based, human.
Assay [2] relates to Su-DHL4 cells. Description: Inhibition of CD40-mediated apoptosis by kinase inhibitors (viable cell count). It counts as cell-based, human. The note with it: 96 hours CD40 stimulation, U0126 10 μM, PD98059 50 μM, SB203580 10 μM added 30 minutes prior. How it is done: (§1) FIG. 10 is a bar graph showing the effect of ERK inhibition on CD40-mediated apoptosis. Cells were subjected to CD40 stimulation for 96 hours in the presence of the MEK1/2 inhibitors U0126 (10 μM) or PD98059 (50 μM), or the p38 inhibitor SB203580 (10 μM). Cell viability was quantitated by staining nonpermeabilized cells with propidium iodide, and counting the number of unstained (live) cells per unit volume using a Becton-Dickinson FACScan flow cytometer set to count for 30 seconds. The number of viable cells in anti-CD40-treated samples was expressed as a percentage of the number of viable cells incubated in secondary antibody only. Results from three experiments of four replicates each are shown. Error bars represent standard deviations. […] Constitutive ERK phosphorylation is correlated with CD40-mediated cell death.
(§2) Cells were resuspended at 1×10^5 cells/mL in RPMI 1640 medium supplemented as described above. Anti-CD40 antibody G28.5 and secondary crosslinking antibody HB58 were added to a final concentration of 10 μg/mL each, and the cells were incubated at 37° C. At 24 hour intervals aliquots of cells were harvested by centrifugation, washed once in phosphate buffered saline, and resuspended in FACS buffer. Non-permeabilized cells were stained by addition of 1 μg/mL propidium iodide, and the density of viable cells was determined using a FACScan flow cytometer and CellQuest software (Becton Dickinson, Mississauga, ON, Canada) set to count for a fixed 30-second time interval. To determine the fraction of cells that had undergone apoptosis, total intracellular DNA content was measured by propidium iodide staining of ethanol-permeabilized cells as previously described (16). Expression of CD40 on the cell surface was confirmed by staining non-permeabilized cells with a phycoerythrin-linked anti-CD40 antibody (clone 5C3, Becton-Dickinson) as per the manufacturer's directions, followed by flow cytometry.

The subject of assay [3] is OCI-Ly7 cells. Described as above. It counts as cell-based, human. The following applies: 96 hours CD40 stimulation, U0126 10 μM, PD98059 50 μM, SB203580 10 μM added 30 minutes prior. The method, then:
as §1, §2

For assay [4], the system named is Su-DHL4 cells. In words: Growth inhibition by kinase inhibitors (MTT assay). The assay is classed as cell-based, human. The following applies: 96 hours; inhibitor 10^−4 to 10^−8 M. The text has this:
(§3) Error bars indicate standard deviations.
For orientation: Tetrazolium assays rely on reduction of a dye to a coloured formazan, in cell work by metabolically active cells.

In assay [5] the test system is OCI-Ly7 cells. Description: Growth inhibition by kinase inhibitors (MTT assay). It counts as cell-based, human. The following applies: 96 hours; inhibitor 10^−4 to 10^−8 M.
Excerpt: as §3

The test system of assay [6] is phosphorylated ERK in Su-DHL4 cells. The following applies: 10 μM, 48 hours.
Description: Cells were permeabilized in Cytofix/Cytoperm (Becton-Dickinson) for 20 minutes, and stained with anti-phospho-ERK antibody (Cell Signaling Technology #9101) and FITC-conjugated anti-rabbit secondary antibody (Cedarlane Laboratories, Hornby, ON, CA) following the manufacturers' instructions. The stained cells were analyzed by flow cytometry with a FACScan flow cytometer and CellQuest software.
This hypothesis was tested using pharmacologic inhibitors of MEK. Su-DHL4 cells were incubated in the presence of 10 μM U0126 for 48 hours, permeabilized and stained with an anti-phospho-ERK antibody.
The subject of assay [7] is CD40-sensitive and CD40-resistant DLCBL lines (OCI-Ly1, OCI-Ly7, OCI-Ly8, Su-DHL4). The following applies: 96 hours; inhibitor 10^−4 to 10^−8 M.
Description: Sensitivity of the cell lines to inhibition of LCK and ERK activity was tested by addition of the src family kinase inhibitor PP1 or the MEK1/2 inhibitor U0126. Cells were incubated for 96 hours in inhibitor concentrations ranging from 10^−4 to 10^−8 M, and viability was assessed by MTT [3-(4,5-dimethylthiazol-2-yl)-2,5-diphenyltetrazolium bromide] assay. Viability is expressed as a percentage of the absorbance at 570 nm as compared to untreated samples. Results of two experiments with quadruplicate samples each were combined. Error bars indicate standard deviations.
The src family kinase inhibitor PP1 and the MEK inhibitor U0126 were purchased from Biomol (Plymouth Meeting, Pa., USA), and from Cell Signaling Technology (Beverly, Mass., USA) respectively. Kinase inhibition assays were performed using cells seeded at a density of 5×10^4 per mL in 96-well plates, to which kinase inhibitors were added to final concentrations of 10^−4 to 10^−8 M. The treated cells were incubated at 37° C. for 96 hours and cell viability was quantitated by MTT assay as previously described (17).

As to `C[C@H](CCC(=O)O)C[C@H](C)C[C@H](C)C(=O)/C=C(\O)[C@H](C)C[C@H](C)C/C=C/[C@@H](C)[C@@H](O)[C@@H](C)[C@@H](O)C[C@@H]1CC[C@@](C)([C@H]2CC[C@@](C)([C@@H](C)O)O2)O1` [ionomycin], the cell death result in the assay with Su-DHL4 cells [1] is given as “induced cell death”.
As to `COc1cccc(-c2cc(=O)c3ccccc3o2)c1N` [PD98059], the “CD40-mediated cell death (viable cells in anti-CD40-treated samples vs secondary antibody only)” value in the assay with Su-DHL4 cells [2] is on record as “prevented CD40-mediated reduction in viability”; in the assay on Su-DHL4 cells [2] (listed as PD98058), “reduced CD40-mediated cell death”; in the assay with OCI-Ly7 cells [3] it was “prevented CD40-mediated reduction in viability”; in the assay on OCI-Ly7 cells [3] (listed as PD98058), “reduced CD40-mediated cell death”.
Consider `Cc1ccc(-c2nn(C(C)(C)C)c3ncnc(N)c23)cc1` [PP1], for which the “growth (viability by MTT assay)” value is “more effective at reducing proliferation; also recorded: inhibited by PP1 more efficiently than growth of CD40-resistant OCI-Ly1 and OCI-Ly8 cells” in the assay on Su-DHL4 cells [4]; “more effective at reducing proliferation; also recorded: inhibited by PP1 more efficiently than growth of CD40-resistant OCI-Ly1 and OCI-Ly8 cells” in the assay on OCI-Ly7 cells [5].
With `N#CC(=C(/N)Sc1ccccc1N)/C(C#N)=C(\N)Sc1ccccc1N` [U0126], in assay [6], the “phosphorylation of ERK” value was “reduced”. Also, in assay [7], the “differential effects on growth of CD40-sensitive and CD40-resistant DLCBL lines” value was “did not show differential effects”. In addition, the “CD40-mediated cell death (viable cells in anti-CD40-treated samples vs secondary antibody only)” value in the assay with Su-DHL4 cells [2] and in the assay with OCI-Ly7 cells [3] was “prevented CD40-mediated reduction in viability; also recorded: reduced CD40-mediated cell death” each time.
Consider `C[S+]([O-])c1ccc(-c2nc(-c3ccncc3)c(-c3ccc(F)cc3)[nH]2)cc1` (stereo not shown) [SB203580], for which the “CD40-mediated cell death (viable cells in anti-CD40-treated samples vs secondary antibody only)” value in the assay on Su-DHL4 cells [2] and in the assay on OCI-Ly7 cells [3] was “reduced by CD40 ligation” throughout.
